Data as given in BindingDB's records for doi:10.1016/s0960-894x(02)00102-6 (Schering-Plough Research Institute, 2002).

Test: Michaelis-Menten constant was determined against Hepatitis C virus NS3 protease and represented as Km

Work on CCCN(NC(=O)[C@H]1CCCN1C(=O)[C@@H](NC(=O)[C@@H](NC(=O)[C@H](CC(=O)O)NC(=O)[C@H](CCC(=O)O)NC(=O)[C@@H](NC(C)=O)[C@@H](C)O)C(C)C)C(C)C)C(=O)Oc1ccc([N+](=O)[O-])cc1 [Azapeptide] yielded a Ki of 8 µM.
